Laboratory results from the NIST ThermoML archive (doi:10.1021/je060330k).
Numbers after ± are expanded uncertainties.

Settings: Liquid, Closed cell (Static) method

## FCC(F)(F)F [1,1,1,2-tetrafluoroethane]
295.4 K
  vapor or sublimation pressure: 612 ± 1.3 kPa
300 K
  vapor or sublimation pressure: 704.4 ± 1.5 kPa
304 K
  vapor or sublimation pressure: 788.5 ± 1.6 kPa
